Assay results taken from patent publication US20260199359A1 (INCYTE CORPORATION, priority 2021, published 2026).
“And” between values parts separate entries of the source, which are not always exact repeats. Identical values can stand only once. Like-named read-outs stand apart in the source and are kept apart here.

What was measured:
[1] = Apparent pH of solvent systems before API addition and of saturated supernatant; assay type: physicochemical
[2] = Compatibility / immiscibility of bases and trolamine levels in solvent systems; assay type: physicochemical
[3] = SSAG01 with 3.50% w/w of the named base, before API addition
[4] = SSAG01 with 3.50% w/w of the named base, saturated with ruxolitinib phosphate
[5] = SSCR01 with 3.50% w/w of the named base, before API addition
[6] = SSCR01 with 3.50% w/w of the named base, saturated with ruxolitinib phosphate
[7] = SSNA01 with 3.50% w/w of the named base, before API addition
[8] = SSNA01 with 3.50% w/w of the named base, saturated with ruxolitinib phosphate

Molecule: CC(C)(N)CO [2-Amino-2-methyl-1-propanol]
- Vehicle pH [1, 3]: 12.17
- Supernatant pH [1, 4]: 4.34
- Vehicle pH [1, 5]: 11.44
- Supernatant pH [1, 6]: 3.61
- Vehicle pH [1, 7]: 10.45
- Supernatant pH [1, 8]: 4.98

Molecule: CC(C)NC(C)C [Diisopropylamine]
- Supernatant pH [1]: 4.80 and 4.53
- Vehicle pH [1]: 10.62 and 12.57
- Compatibility of base with solvent system ([2]; SSCR01): Incompatible
- compatibility of the base with the solvent system ([2]; SSCR01): incompatible

Molecule: NC(CO)(CO)CO [Tris]
- Vehicle pH [1, 5]: 10.08
- Supernatant pH [1, 6]: 3.45
- Compatibility of base with solvent system ([2]; SSAG01): Incompatible
- compatibility of the base with the solvent system ([2]; SSAG01): not compatible
- Compatibility of base with solvent system ([2]; SSNA01): Incompatible
- compatibility of the base with the solvent system ([2]; SSNA01): incompatible

Molecule: N#CC[C@H](C1CCCC1)n1cc(-c2ncnc3[nH]ccc23)cn1 [Ruxolitinib phosphate, ruxolitinib phosphate]
- solubility at 24 h (physchem): 11.3 mg/mL

Molecule: OCCNCCO [Diethanolamine]
- Vehicle pH [1, 5]: 10.88
- Vehicle pH [1, 7]: 10.30
- Compatibility of base with solvent system ([2]; SSAG01): Incompatible
- compatibility of the base with the solvent system ([2]; SSAG01): incompatible

Molecule: CCC(N)(CO)CO [2-Amino-2-ethyl-1,3-propanediol]
- Vehicle pH [1, 5]: 10.38
- Supernatant pH [1, 6]: 3.29
- Vehicle pH [1, 7]: 10.27
- Supernatant pH [1, 8]: 4.99
- Compatibility of base with solvent system ([2]; SSAG01): Incompatible
- compatibility of the base with the solvent system ([2]; SSAG01): incompatible

Molecule: CC(O)CNCC(C)O (centres unmarked) [Diisopropanolamine]
- apparent pH of SSAG01 following API addition with the named base ([1]; SSAG01, after ruxolitinib phosphate addition): 4.29
- Vehicle pH [1, 3]: 11.31
- Supernatant pH [1, 4]: 4.29
- Vehicle pH [1, 5]: 10.63
- Supernatant pH [1, 6]: 3.49
- Vehicle pH [1, 7]: 9.89
- Supernatant pH [1, 8]: 6.51

Molecule: Ethanolamine
- Supernatant pH [1]: 6.65 and 6.55 and 5.33
- Vehicle pH [1]: 10.27 and 12.25 and 11.52
- apparent pH of SSCR01 following API addition with the named base [1]: 5.33
- apparent pH of SSNA01 following API addition with the named base [1]: ca. 6.6
